Assay results: patent publication US9932317B2, “Quinazoline compounds and their use in therapy” (Imperial Innovations Limited, priority 2012, dated 2018)

Experiments:
[1] = system: EZH2 target genes (KRT17, FBXO32) in MDA-MB-231 cells; assay: Real-time RT-PCR cell based assay for up-regulation of H3K27me3 silenced genes
Description: In order to monitor the reversal of epigenetic silencing associated with H3K27me3, a cell based assay was established using the breast-cancer cell line MDA-MB-231 for which EZH2 expression levels as well as EZH2 target genes have been characterised (17). For initial characterisation of compound activity two genes (KRT17, FBXO32) were selected which are primarily silenced by H3K27me3 in combination with H3K9me2/3 but are not DNA methylated. Furthermore, the DNA methylated gene (RUNX3) was selected to control for effects at loci that are silenced by H3K27me3 in combination with CpG island DNA methylation. The two enzymes which perform H3K27 methylation (EZH2) and demethylation (JMJD3) were also included. Cell death can lead to the down-regulation of EZH2 and up-regulation of JMJD3 in cells (36) and is therefore important to control for indirect effects due to cell death in such a cell-based assay.
In order to identify compounds which can mediate the reactivation of PRC2 silenced genes, MDA-MB-231 cells were treated for 48 h at a concentration of 10 μM of Example compounds 3 (HKMTi-1-005), 4 (HKMTi-1-022) or 5 (HKMTi-1-011), as well as with the comparative examples BIX-01294 or UNC0224, and mRNA levels of KRT17, FBXO32, RUNX3, as well as EZH2 and JMJD3 were measured by real-time RT-PCR. The data were normalised against the housekeeping gene GAPDH as well as RNA pol II (only results for GAPDH are shown, although consistent results were obtained with RNA pol II normalisation). […] The reported G9a/GLP specific inhibitors BIX01294 and UNC0224 have a very different activity profile on gene expression.
(§1) To characterise example compounds 3 (HKMTi-1-005), 4 (HKMTi-1-022) and 5 (HKMTi-1-011) further, MDA-MB-231 cells were treated for 48 h and 72 h at various concentrations (FIGS. 1d and e). […] At higher doses of compounds cell death started to occur, particularly at 72 h, which coincides with a dramatic drop in GAPDH levels. At these doses, expression of KRT17 was often below the detection limit of low-expressed genes due to cell death (indicated as “*” in FIGS. 1d and e). Independently synthesised batches of Example compounds 3 (HKMTi-1-005), 4 (HKMTi-1-022) and 5 (HKMTi-1-011) were prepared and assessed to ensure reproducibility of our results and indeed confirmed that those compounds could induce gene re-expression of KRT17 and FBXO32.
Cell culture and compound treatment: MDA-MB-231, T47D, MCF7, BT474, BT549 and SKBR3 breast cancer cell lines were cultured in DMEM-Medium supplemented with 10% FCS (#02.00.830, First Link (UK), 2 mM L-Glutamine (#25030-024, Invitrogen), 100 U/ml Penicillin and 100 μg/ml Streptavidin (#15070-063, Invitrogen) until they were ˜60% confluent and then treated for either 48 h or 72 h with a compound. Compounds were diluted in DMSO at Stocks of 10 mM. MCF-10a breast cell lines were cultured in DMEM/F12-Medium supplemented with 5% horse serum, EGF (20 ng/ml), Hydrocortizone ([…]), Cholera Toxin (100 ng/ml), Insulin (10 μg/ml) as well as 100 U/ml Penicillin and 100 μg/ml Streptavidin (#15070-063, Invitrogen). For MTT experiments, cells were either kept in DMEM/F12 growth medium or in normal DMEM-Medium to mimic the ‘normal’ non-dividing cell state.
Following compound treatment for 48 h (in 6-well plates), media was removed and 1.5 ml of TRIzol (#155966018, Invitrogen) was added directly to lyse cells. Once cells were lysed, the protocol was continued with 1 ml (TRIzol, cell lysate) according to the manufactures instructions. Purified RNA was dissolved in 35 μl of UltraPure DNase/RNase-free distilled water (#10977049, Invitrogen). Reverse transcription was done using the SuperScript III First-Strand Synthesis System (#18080-051, Invitrogen) according to the manufactures instructions, using 7 μl of the purified RNA as starting material. For real-time measurements the 2×iQ SYBR Green Supermix (#170-8882, Bio-Rad), 200 nM Primers and 0.4 μl of cDNA/per 20 μl reaction was used. […]

[2] = reported; cited from earlier work
[3] = system: histone marks at KRT17 and FBXO32 promoter region in MDA-MB-231 cells; assay: Chromatin Immunoprecipitation (ChIP) at KRT17 and FBXO32 promoter; format: cell-based; details: MDA-MB-231, 5 μM, 72 h
Procedure: The fold difference to the untreated sample is shown. Each IP-value has been determined as the relative increase to the no-antibody control and then normalised to GAPDH levels.
Chromatin Immunoprecipitation (ChIP) experiments were carried out on treated MDA-MB-231 cells to verify that the detected gene up-regulation is indeed due to chromatin remodelling (FIG. 2). For this, typical silencing marks such as H3K9me3 and H3K27me3 were tested as well as activating marks such as H3K4me3, H3K27ac and H3K9ac. […] It should be noted that greater than 50% cell death is observed for compound 5 (HKMTi-1-011) at this concentration, but not for the others, and the changes observed in histone marks for compound 5 (HKMT-1-011) may reflect ongoing cell death.
ChIP was accomplished using Dynabeads Protein A (Invitrogen #100-01D.) according to (41), except that following the Chelex-DNA purification an additional purification with QIAquick PCR Purification Kit (#28106, Qiagen) was carried out, here the ChIP-products were eluted in 50 μl and for subsequent real-time measurements (as described above) 1.5 μl per reaction was used. The list of Primers can be found in FIG. 7 (Supplementary Table 2).

[4] = system: EZH2 target genes in MDA MB-231 cells; assay: Agilent two-colour gene expression microarrays, enrichment of EZH2 target genes; format: cell-based; details: MDA MB-231, 10 μM
Procedure: Agilent two-colour microarrays were used to profile gene expression changes induced 24 h and 48 h after 10 μM treatment with example compound 3 (HKMTi-1-005) compared to compound HKMTi-1-012. […] Many of these EZH2 target genes are clearly differentially expressed following treatment with example compound 3 (HKMTi-1-005) compared to compound HKMTi-1-012, as shown in Table 2 in FIG. 5. Statistical enrichment of EZH2-target genes (Lee et al 2011) in the lists of differentially expressed genes was evaluated using the hypergeometric distribution. Example compound 3 (HKMTi-1-005) results in significant upregulation (p=3.3^−33 at 24 h and p=3.2^−21 at 48 h) and significant down-regulation (p=3.5^−37 at 24 h and p=3.8^−61 at 48 h) of EZH2 target genes. […]
Normalised log 2 gene expression ratios were analysed using LIMMA (Smyth 2004) to obtain empirical Bayes moderated t-statistics reflecting statistical significance of differential expression across the 4 replicates for each drug, time combination. […]
Statistical significance of overlap between these lists of EZH2 targets and the genes differentially expressed upon drug treatment in our microarray study was assessed using the hypergeometric distribution.

MDA-MB-231 cells = assay: Cell death of treated MDA-MB-231 cells; format: cell-based; details: MDA-MB-231, concentration of the ChIP experiment (5 μM, 72 h)
Procedure: as §1
Chromatin Immunoprecipitation (ChIP) experiments were carried out on treated MDA-MB-231 cells to verify that the detected gene up-regulation is indeed due to chromatin remodelling (FIG. 2). For this, typical silencing marks such as H3K9me3 and H3K27me3 were tested as well as activating marks such as H3K4me3, H3K27ac and H3K9ac. […] It should be noted that greater than 50% cell death is observed for compound 5 (HKMTi-1-011) at this concentration, but not for the others, and the changes observed in histone marks for compound 5 (HKMT-1-011) may reflect ongoing cell death. […]

[5] = MDA-MB-231, 10 μM, 48 h, normalised to GAPDH
[6] = MDA-MB-231, various concentrations, 48 h and 72 h

SMILES	FBXO32 RNA levels [1, 5]	KRT17 RNA levels [1, 5]	separation of functional potency and cell toxicity [2]	EZH2 mRNA level [1, 6]	FBXO32 mRNA level [1, 6]	JMJD3 mRNA level [1, 6]	KRT17 mRNA level [1, 6]	RUNX3 expression [1, 6]	RUNX3 expression [1, 5]	permissive chromatin marks (H3K4me3, H3K4me2, H3K9ac, H3K27ac) [3]	repressive chromatin marks (H3K27me3, H3K9me3) at KRT17 and FBXO32 [3]	functional enrichment of changed pathways (DAVID) [4]	cell death (MDA-MB-231 cells)	JMJD3 binding [3]	permissive chromatin marks (H3K4me3, H3K4me2, H3K9ac, H3K27ac) ([3]; listed as HKMT-1-022)	gene expression profile in the cell assay (KRT17, FBXO32, RUNX3) ([1]; MDA-MB-231, 10 μM, compared with example compounds 3, 4 and 5)
COc1cc2nc(N3CCCN(C)CC3)nc(NC3CCN(Cc4ccccc4)CC3)c2cc1OC [BIX-01294, reference compound]	does up-regulate	does not up-regulate	poor separation of functional potency and cell toxicity													
Nc1nccc2c1ncn2C1C=C(CO)C(O)C1O (stereo not drawn) [DZNep, reference compound]				unaffected	unaffected	unaffected	consistently up-regulated	increased under certain conditions although not in a dose dependent manner								
COc1cc2nc(N3CCN(C)CC3)nc(NC3CCN(Cc4ccccc4)CC3)c2cc1OC [HKMTi-1-005]	up-regulate	up-regulate			dose-dependent increase	dose-dependent increase	dose-dependent increase		not effecting	increase in most permissive marks	clear decrease	upregulation of apoptosis genes and the lysosome pathway, and a downregulation of a number of processes related to cell cycle & cell division				
COc1cc2nc(N3CCN(c4ccccn4)CC3)nc(NC3CCN(Cc4ccccc4)CC3)c2cc1OC [HKMTi-1-011]	up-regulate	up-regulate			increase in a dose dependent manner	increase in a dose dependent manner	increase in a dose dependent manner		not effecting	increase in most permissive marks	clear decrease		greater than 50%			
COc1cc2nc(N3CCCCC3)nc(NC3CCN(Cc4ccccc4)CC3)c2cc1OC [HKMTi-1-022]	up-regulate	up-regulate			increase in a dose dependent manner	increase in a dose dependent manner	increase in a dose dependent manner		not effecting	increase of the activating marks H3K4me3, H3K27ac and H3K9ac	clear decrease			increase	concomitant increase in all permissive chromatin marks examined	
COc1cc2c(NC3CCN(C)CC3)nc(N3CCCN(C)CC3)nc2cc1OCCCN(C)C [UNC0224, reference compound]	very little effect	very little effect														very little effect
